Test results reported in ChEMBL document CHEMBL1765070, “Structure-based design of potent and selective 3-phosphoinositide-dependent kinase-1 (PDK1) inhibitors” (J Med Chem, 2011).

What was measured:
K562 = test: Antiproliferative activity against human K562 cells; type: functional, cell-based
OCI-AML2 = test: Antiproliferative activity against human OCI-AML2 cells; type: functional, cell-based
[1] = Antiproliferative activity against human OCI-AML3 cells; type: functional, cell-based; settings: OCI-AML-3
Aurora kinase A = molecular target: T1, Aurora kinase A (Homo sapiens, UniProt O14965); test: Inhibition of aurora A
T1 sequence (O14965 whole entry): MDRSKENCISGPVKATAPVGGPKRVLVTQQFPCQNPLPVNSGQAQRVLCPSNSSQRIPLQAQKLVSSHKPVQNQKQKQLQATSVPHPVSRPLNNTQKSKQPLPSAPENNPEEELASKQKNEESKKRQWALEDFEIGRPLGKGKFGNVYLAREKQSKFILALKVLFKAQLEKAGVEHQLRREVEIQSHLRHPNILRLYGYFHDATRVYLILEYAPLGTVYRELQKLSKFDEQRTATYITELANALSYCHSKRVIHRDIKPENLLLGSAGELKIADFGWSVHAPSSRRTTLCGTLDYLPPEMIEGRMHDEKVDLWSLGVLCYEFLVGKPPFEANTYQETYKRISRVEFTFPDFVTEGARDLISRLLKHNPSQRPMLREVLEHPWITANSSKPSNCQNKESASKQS

HEL = test: Antiproliferative activity against human HEL 92.1.7 cells; type: functional, cell-based
[2] = Antiproliferative activity against human F-36P cells; type: functional, cell-based
[3] = molecular target: T2, 3-phosphoinositide-dependent protein kinase 1 (Homo sapiens, UniProt O15530); test: Inhibition of PDK1
T2 sequence (O15530 whole entry): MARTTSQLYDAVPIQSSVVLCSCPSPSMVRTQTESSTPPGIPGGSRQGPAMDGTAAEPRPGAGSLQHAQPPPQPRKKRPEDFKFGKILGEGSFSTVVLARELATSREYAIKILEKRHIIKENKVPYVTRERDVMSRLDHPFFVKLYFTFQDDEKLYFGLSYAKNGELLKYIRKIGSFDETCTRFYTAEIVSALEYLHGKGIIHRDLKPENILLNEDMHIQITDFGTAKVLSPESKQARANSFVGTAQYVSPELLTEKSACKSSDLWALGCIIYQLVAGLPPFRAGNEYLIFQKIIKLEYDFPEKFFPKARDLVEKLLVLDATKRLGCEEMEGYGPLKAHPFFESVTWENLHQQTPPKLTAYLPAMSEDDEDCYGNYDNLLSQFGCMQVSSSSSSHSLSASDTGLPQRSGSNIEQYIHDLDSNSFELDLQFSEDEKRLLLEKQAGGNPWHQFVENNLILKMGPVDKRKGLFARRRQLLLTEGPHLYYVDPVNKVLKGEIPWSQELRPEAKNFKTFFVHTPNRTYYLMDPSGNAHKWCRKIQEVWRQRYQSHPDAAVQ

[4] = molecular target: T2, 3-phosphoinositide-dependent protein kinase 1; test: Inhibition of PDK1-mediated RSK phosphorylation at Ser221 residue in human PC3 cells by ELISA; type: cell-based, PC-3
TGF-beta receptor type-1 = molecular target: T3, TGF-beta receptor type-1 (Homo sapiens, UniProt P36897); test: Inhibition of ALK5; settings: read-out: pIC50 (converted)
T3 sequence (P36897 whole entry): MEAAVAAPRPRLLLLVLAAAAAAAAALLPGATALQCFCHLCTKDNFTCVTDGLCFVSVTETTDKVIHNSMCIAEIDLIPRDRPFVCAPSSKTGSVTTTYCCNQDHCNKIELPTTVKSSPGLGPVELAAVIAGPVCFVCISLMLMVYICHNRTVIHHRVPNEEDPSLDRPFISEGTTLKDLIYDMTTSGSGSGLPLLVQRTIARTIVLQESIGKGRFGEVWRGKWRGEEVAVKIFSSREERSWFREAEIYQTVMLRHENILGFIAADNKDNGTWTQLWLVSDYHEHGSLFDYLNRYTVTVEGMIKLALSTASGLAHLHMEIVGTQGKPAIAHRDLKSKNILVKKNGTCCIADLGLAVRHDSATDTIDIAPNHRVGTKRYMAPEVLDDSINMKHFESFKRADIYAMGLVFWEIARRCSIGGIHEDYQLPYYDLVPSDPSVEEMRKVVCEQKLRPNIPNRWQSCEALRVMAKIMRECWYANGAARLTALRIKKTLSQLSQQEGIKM

[5] = molecular target: Rho-associated protein kinase 1 (Homo sapiens, UniProt Q13464); test: Inhibition of ROCK1
Aurora kinase B = Aurora kinase B (Homo sapiens, UniProt Q96GD4); test: Inhibition of aurora B
[6] = molecular target: T2, 3-phosphoinositide-dependent protein kinase 1; test: Inhibition of PDK1-mediated AKT phosphorylation at Thr308 residue in human PC3 cells by ELISA; type: cell-based, PC-3

Aurora kinase B, sequence (Q96GD4 whole entry): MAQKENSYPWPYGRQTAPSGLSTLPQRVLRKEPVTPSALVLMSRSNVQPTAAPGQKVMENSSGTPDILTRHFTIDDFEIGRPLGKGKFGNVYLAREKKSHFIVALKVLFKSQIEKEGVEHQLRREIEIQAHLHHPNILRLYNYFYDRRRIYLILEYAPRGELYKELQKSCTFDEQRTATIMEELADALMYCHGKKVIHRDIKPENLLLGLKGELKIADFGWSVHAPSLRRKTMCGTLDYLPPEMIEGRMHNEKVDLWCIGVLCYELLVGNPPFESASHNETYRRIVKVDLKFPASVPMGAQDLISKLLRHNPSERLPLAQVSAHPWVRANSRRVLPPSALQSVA
Rho-associated protein kinase 1, sequence (Q13464 whole entry): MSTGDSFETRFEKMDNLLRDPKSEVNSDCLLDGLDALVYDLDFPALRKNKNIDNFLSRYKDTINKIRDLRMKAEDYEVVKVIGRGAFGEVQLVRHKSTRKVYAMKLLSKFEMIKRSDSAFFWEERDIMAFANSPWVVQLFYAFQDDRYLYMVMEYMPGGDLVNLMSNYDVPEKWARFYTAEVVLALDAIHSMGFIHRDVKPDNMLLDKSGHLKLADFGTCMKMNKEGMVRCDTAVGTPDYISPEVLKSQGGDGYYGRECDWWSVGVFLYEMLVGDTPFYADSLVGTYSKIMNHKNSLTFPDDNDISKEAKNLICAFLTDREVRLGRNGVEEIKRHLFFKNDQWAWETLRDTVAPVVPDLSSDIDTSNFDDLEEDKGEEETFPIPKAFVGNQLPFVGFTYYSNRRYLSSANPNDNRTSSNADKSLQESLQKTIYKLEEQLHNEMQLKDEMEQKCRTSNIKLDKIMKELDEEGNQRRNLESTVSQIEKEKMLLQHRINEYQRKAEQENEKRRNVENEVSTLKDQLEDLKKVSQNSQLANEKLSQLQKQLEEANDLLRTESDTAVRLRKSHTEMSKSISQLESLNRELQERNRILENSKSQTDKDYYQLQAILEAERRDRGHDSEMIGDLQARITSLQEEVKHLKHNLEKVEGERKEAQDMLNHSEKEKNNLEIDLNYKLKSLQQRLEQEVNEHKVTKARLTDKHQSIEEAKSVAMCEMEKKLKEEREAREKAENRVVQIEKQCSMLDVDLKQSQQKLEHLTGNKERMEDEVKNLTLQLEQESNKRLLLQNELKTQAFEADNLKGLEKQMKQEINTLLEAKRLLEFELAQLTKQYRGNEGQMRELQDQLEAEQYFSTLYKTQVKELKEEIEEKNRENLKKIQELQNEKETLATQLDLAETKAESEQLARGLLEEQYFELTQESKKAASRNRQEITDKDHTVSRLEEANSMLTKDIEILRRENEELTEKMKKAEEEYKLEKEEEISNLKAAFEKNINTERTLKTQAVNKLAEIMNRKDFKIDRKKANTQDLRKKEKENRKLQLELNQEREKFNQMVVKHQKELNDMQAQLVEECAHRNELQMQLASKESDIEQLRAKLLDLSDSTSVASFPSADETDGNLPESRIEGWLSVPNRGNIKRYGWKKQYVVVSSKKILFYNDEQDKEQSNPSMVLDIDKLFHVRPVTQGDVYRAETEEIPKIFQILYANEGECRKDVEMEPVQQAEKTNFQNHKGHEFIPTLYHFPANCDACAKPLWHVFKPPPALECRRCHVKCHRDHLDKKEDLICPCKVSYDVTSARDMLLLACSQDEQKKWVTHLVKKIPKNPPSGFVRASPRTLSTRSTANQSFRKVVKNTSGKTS

IC50 (K562) | IC50 (OCI-AML2) | IC50 (Aurora kinase A) | IC50 [3] | IC50 [4] | IC50 (TGF-beta receptor type-1) | IC50 [5] | IC50 (Aurora kinase B) | IC50 [6] | SMILES | IC50 [1] | IC50 (HEL) | IC50 [2]
> 30000 nM | 460 nM | > 10000 nM | 3.16 nM | 30 nM | > 10000 nM | > 10000 nM | 5010 nM | 24 nM | CNc1nc(-c2ccc3c(N)n[nH]c3c2)cc(N2C[C@@H](C(=O)NC3CCCCC3)OC[C@H]2C)n1 | 690 nM | 19000 nM | 390 nM
24000 nM | 690 nM | 398 nM | – | – | > 10000 nM | > 10000 nM | 1580 nM | – | C[C@@H]1C[C@@H](NC(=O)OC(C)(C)C)CN(c2cc(-c3ccc4c(N)[nH]nc4c3)nc(N)n2)C1 | 400 nM | 18000 nM | 820 nM
– | – | 5010 nM | 7.94 nM | 316 nM | > 10000 nM | 631 nM | 1000 nM | 472 nM | C[C@@H]1CC[C@H](C(=O)NC2CCCCC2)CN1c1cc(-c2ccc3c(N)n[nH]c3c2)nc(N)n1 | – | – | –
17000 nM | 380 nM | 126 nM | 0.794 nM | 19 nM | > 10000 nM | > 10000 nM | 251 nM | 9 nM | C[C@@H]1C[C@@H](N(C)C(=O)OC(C)(C)C)CN(c2cc(-c3ccc4c(N)n[nH]c4c3)nc(N)n2)C1 | 240 nM | 18000 nM | 190 nM
